Experimental data reported in patent US5654411A, “Process for preparing 4-deoxyerythromycin derivatives” (Abbott Laboratories, priority 1995, dated 1997).
Values after ≈ are worked out from the molar mass of the structure shown.

Assays:
[1] = tested on: Pseudomonas aeruginosa BMH10; test: Antibacterial activity (MIC), agar dilution method; type: cell-based; settings: unit assumed
Method: (§1) Compounds of the invention were next tested for antibacterial potency, such activity being regarded as an undesirable side effect if prokinetic therapy. Assays were conducted using methodology well-known in the art (the agar dilution method).

[2] = tested on: Pseudomonas aeruginosa K799/61; test: Antibacterial activity (MIC), agar dilution method; type: cell-based; settings: unit assumed
Method: as §1

[3] = tested on: Micrococcus luteus ATCC 9341; test: Antibacterial activity (MIC), agar dilution method; type: cell-based; settings: unit assumed
Method: as §1

[4] = tested on: Pseudomonas cepacia 2961; test: Antibacterial activity (MIC), agar dilution method; type: cell-based; settings: unit assumed
Method: as §1

[5] = tested on: Escherichia coli JUHL; test: Antibacterial activity (MIC), agar dilution method; type: cell-based; settings: unit assumed
Method: as §1

[6] = tested on: Staphylococcus aureus CMX 553; test: Antibacterial activity (MIC), agar dilution method; type: cell-based; settings: unit assumed
Method: as §1

[7] = tested on: Pseudomonas aeruginosa K799/WT; test: Antibacterial activity (MIC), agar dilution method; type: cell-based; settings: unit assumed
Method: as §1

[8] = tested on: Staphylococcus aureus 642A; test: Antibacterial activity (MIC), agar dilution method; type: cell-based; settings: unit assumed
Method: as §1

[9] = tested on: Enterococcus faecium ATCC 8043; test: Antibacterial activity (MIC), agar dilution method; type: cell-based; settings: unit assumed
Method: as §1

[10] = tested on: Staphylococcus aureus NCTC 10649; test: Antibacterial activity (MIC), agar dilution method; type: cell-based; settings: unit assumed
Method: as §1

[11] = tested on: Streptococcus agalactiae CMX 508; test: Antibacterial activity (MIC), agar dilution method; type: cell-based; settings: unit assumed
Method: as §1

[12] = tested on: Staphylococcus aureus A5177; test: Antibacterial activity (MIC), agar dilution method; type: cell-based; settings: unit assumed
Method: as §1

[13] = tested on: Providencia stuartii CMX 640; test: Antibacterial activity (MIC), agar dilution method; type: cell-based; settings: unit assumed
Method: as §1

[14] = tested on: Micrococcus luteus ATCC 4698; test: Antibacterial activity (MIC), agar dilution method; type: cell-based; settings: unit assumed
Method: as §1

[15] = tested on: Streptococcus bovis A5169; test: Antibacterial activity (MIC), agar dilution method; type: cell-based; settings: unit assumed
Method: as §1

[16] = tested on: Staphylococcus aureus 1775; test: Antibacterial activity (MIC), agar dilution method; type: cell-based; settings: unit assumed
Method: as §1

[17] = tested on: Staphylococcus aureus ATCC 6538P; test: Antibacterial activity (MIC), agar dilution method; type: cell-based; settings: unit assumed
Method: as §1

[18] = tested on: Streptococcus pyogenes 930 CONST; test: Antibacterial activity (MIC), agar dilution method; type: cell-based; settings: unit assumed
Method: as §1

[19] = tested on: Streptococcus pyogenes EES61; test: Antibacterial activity (MIC), agar dilution method; type: cell-based; settings: unit assumed
Method: as §1

[20] = tested on: Pseudomonas aeruginosa DPHD-5263; test: Antibacterial activity (MIC), agar dilution method; type: cell-based; settings: unit assumed
Method: as §1

[21] = tested on: Escherichia coli H560; test: Antibacterial activity (MIC), agar dilution method; type: cell-based; settings: unit assumed
Method: as §1

[22] = tested on: Enterobacter aerogenes ATCC 13048; test: Antibacterial activity (MIC), agar dilution method; type: cell-based; settings: unit assumed
Method: as §1

[23] = tested on: Streptococcus pyogenes 2548 INDUC; test: Antibacterial activity (MIC), agar dilution method; type: cell-based; settings: unit assumed
Method: as §1

[24] = tested on: Pseudomonas aeruginosa A5007; test: Antibacterial activity (MIC), agar dilution method; type: cell-based; settings: unit assumed
Method: as §1

[25] = tested on: Escherichia coli DC-2; test: Antibacterial activity (MIC), agar dilution method; type: cell-based; settings: unit assumed
Method: as §1

[26] = tested on: Staphylococcus epidermidis 3519; test: Antibacterial activity (MIC), agar dilution method; type: cell-based; settings: unit assumed
Method: as §1

[27] = tested on: Pseudomonas aeruginosa DPHD-2862; test: Antibacterial activity (MIC), agar dilution method; type: cell-based; settings: unit assumed
Method: as §1

[28] = tested on: Escherichia coli KNK 437; test: Antibacterial activity (MIC), agar dilution method; type: cell-based; settings: unit assumed
Method: as §1

[29] = tested on: Klebsiella pneumoniae ATCC 8045; test: Antibacterial activity (MIC), agar dilution method; type: cell-based; settings: unit assumed
Method: as §1

[30] = tested on: Acinetobacter calcoaceticus CMX 669; test: Antibacterial activity (MIC), agar dilution method; type: cell-based; settings: unit assumed
Method: as §1

[31] = tested on: Escherichia coli SS; test: Antibacterial activity (MIC), agar dilution method; type: cell-based; settings: unit assumed
Method: as §1

[32] = tested on: Staphylococcus aureus A-5278; test: Antibacterial activity (MIC), agar dilution method; type: cell-based; settings: unit assumed
Method: as §1

[33] = tested on: smooth muscle strips isolated from rabbit small intestine; test: Induction of in vitro rabbit duodenal smooth muscle contraction
Method: The compounds of the present invention were tested in vitro for their ability to induce contraction of smooth muscle strips isolated from rabbit small intestine using the following procedure:
Rabbits were sacrificed and 15 cm of duodenum was rapidly removed and placed in ice-cold modified Ringers solution (120 mM sodium chloride, 25 mM sodium bicarbonate, 4.7 mM potassium chloride, 1.25 mM calcium chloride, 1.20 mM magnesium sulfate and 5.6 mM glucose). The longitudinal muscle layer was separated from the circular muscle by blunt dissection and cut into strips of 10×20 mm. Double-folded strips were vertically suspended between two hooks in 10 mL tissue baths with a mechanical preload of 1 g. The upper hook was connected to an […] force transducer, and its displacement was recorded on a Grass polygraph. The tissue baths contained modified Ringers solution at 37° C. and were continuously gassed with 95% oxygen/5% carbon dioxide in order to maintain the pH at 7.5.
After a stabilization period of at least 60 minutes, a contractility dose-response series was performed by adding increasing final concentrations of methacholine (10^-7 M, 10^-6 M and 10^-5 M) in volumes of 100 μL. The bath solutions were replaced at least three times between doses.
After the methacholine dose-response series was completed, a test compound dose response curve was initiated by the same procedure used for the methacholine dose-response series, with at least five concentrations of test compound within the range of 10^-10 M to 10^-4 M. The tissues were washed repeatedly between doses, and the studies were completed by recording the contractile response to 10^-5 M methacholine to ascertain integrity of the muscle preparation. Contractile responses were expressed as percent of maximal contraction. The concentration of test compound which produces half of the maximal contraction (ED50 value) and the negative logarithm of the ED50 value (PED50) were estimated from the dose-response curves.

Row | SMILES | MIC [1] | MIC [2] | MIC [3] | MIC [4] | MIC [5] | MIC [6] | MIC [7] | MIC [8] | MIC [9] | MIC [10] | MIC [11] | MIC [12] | MIC [13] | MIC [15] | MIC [16] | MIC [17] | MIC [18] | MIC [19] | MIC [20] | MIC [21] | further results
1 | CC[C@H]1OC(=O)[C@H](C)[C@@H](O[C@H]2C[C@@](C)(OC)[C@@H](O)[C@H](C)O2)[C@H](C)[C@@H](O[C@@H]2O[C@H](C)C[C@H](N(C)C)[C@H]2O)[C@](C)(O)C[C@@H](C)C(=O)[C@H](C)[C@@H](O)[C@]1(C)O [Erythromycin] | 50 µg/mL (≈ 68.1 µM) | 3.1 µg/mL (≈ 4.22 µM) | 0.02 µg/mL (≈ 0.0273 µM) | > 100 µg/mL | 50 µg/mL (≈ 68.1 µM) | 0.2 µg/mL (≈ 0.273 µM) | 100 µg/mL (≈ 136 µM) | 0.2 µg/mL (≈ 0.273 µM) | 0.05 µg/mL (≈ 0.0681 µM) | 0.2 µg/mL (≈ 0.273 µM) | 0.05 µg/mL (≈ 0.0681 µM) | 1.56 µg/mL (≈ 2.13 µM) | > 100 µg/mL | 0.02 µg/mL (≈ 0.0273 µM) | > 100 µg/mL | 0.1 µg/mL (≈ 0.136 µM) | > 100 µg/mL | 0.05 µg/mL (≈ 0.0681 µM) | 100 µg/mL (≈ 136 µM) | 25 µg/mL (≈ 34.1 µM) | MIC [14]: 0.1 µg/mL (≈ 0.136 µM); MIC [22]: 100 µg/mL (≈ 136 µM); MIC [23]: 6.2 µg/mL (≈ 8.45 µM); MIC [24]: > 100 µg/mL; MIC [25]: 50 µg/mL (≈ 68.1 µM); MIC [26]: 0.2 µg/mL (≈ 0.273 µM); MIC [27]: > 100 µg/mL; MIC [28]: 50 µg/mL (≈ 68.1 µM); MIC [29]: 50 µg/mL (≈ 68.1 µM); MIC [30]: 6.2 µg/mL (≈ 8.45 µM); MIC [31]: 0.2 µg/mL (≈ 0.273 µM); MIC [32]: > 100 µg/mL
2 | CC[C@H]1OC(=O)[C@H](C)[C@@H](O[C@H]2C[C@@](C)(OC)C[C@H](C)O2)[C@H](C)[C@@H](O[C@@H]2O[C@H](C)C[C@H](N(C)CC)[C@H]2O)[C@@]2(C)CC(C)=C(O2)[C@H](C)[C@@H](O)[C@H]1C [Example 7, 8,9-anhydro-4"-deoxy-3'-N-desmethyl-3'-N-ethylerythromycin B-6,9-hemiketal] | > 100 µg/mL | > 100 µg/mL | 12.5 µg/mL (≈ 17.9 µM) | > 100 µg/mL | > 100 µg/mL | > 100 µg/mL | > 100 µg/mL | > 100 µg/mL | 50 µg/mL (≈ 71.6 µM) | 100 µg/mL (≈ 143 µM) | 50 µg/mL (≈ 71.6 µM) | 100 µg/mL (≈ 143 µM) | > 100 µg/mL | 50 µg/mL (≈ 71.6 µM) | > 100 µg/mL | 100 µg/mL (≈ 143 µM) | > 100 µg/mL | 50 µg/mL (≈ 71.6 µM) | > 100 µg/mL | > 100 µg/mL | MIC [22]: > 100 µg/mL; MIC [23]: 50 µg/mL (≈ 71.6 µM); MIC [24]: > 100 µg/mL; MIC [25]: > 100 µg/mL; MIC [26]: 100 µg/mL (≈ 143 µM); MIC [27]: > 100 µg/mL; MIC [28]: > 100 µg/mL; MIC [29]: > 100 µg/mL; MIC [30]: > 100 µg/mL; MIC [31]: 100 µg/mL (≈ 143 µM); MIC [32]: > 100 µg/mL; Endpoint (pED50) could not be obtained, potency in words ([33]; footnote a of Table 2): extremely high potency; Relative Potency ([33]; relative to erythromycin A = 1.0): > 8000
